Assay results as given in ChEMBL document CHEMBL5696442, “Discovery of type II inhibitors of TGFβ-activated kinase 1 (TAK1) and mitogen-activated protein kinase kinase kinase kinase 2 (MAP4K2)” (J Med Chem, 2015).
Calls of active or inactive are those of the source. No cut-off for these calls is given here.

Key:
[1] = target: Serine/threonine-protein kinase 4 (Homo sapiens) (UniProt Q13043); experiment: Inhibition of MST1 Lys2 labeling site harbouring IHRDIKAGNILLNTEGHAK in human Huh-7 cells at 1 uM by KiNativ Profiling analysis relative to control
[2] = target: T1, Phosphatidylinositol 5-phosphate 4-kinase type-2 beta (Homo sapiens) (UniProt P78356); experiment: Inhibition of PIP5K2B (unknown origin) at 1 uM by Ambit Kinomescan binding assay relative to control; values are per cent of control
T1 sequence (whole entry): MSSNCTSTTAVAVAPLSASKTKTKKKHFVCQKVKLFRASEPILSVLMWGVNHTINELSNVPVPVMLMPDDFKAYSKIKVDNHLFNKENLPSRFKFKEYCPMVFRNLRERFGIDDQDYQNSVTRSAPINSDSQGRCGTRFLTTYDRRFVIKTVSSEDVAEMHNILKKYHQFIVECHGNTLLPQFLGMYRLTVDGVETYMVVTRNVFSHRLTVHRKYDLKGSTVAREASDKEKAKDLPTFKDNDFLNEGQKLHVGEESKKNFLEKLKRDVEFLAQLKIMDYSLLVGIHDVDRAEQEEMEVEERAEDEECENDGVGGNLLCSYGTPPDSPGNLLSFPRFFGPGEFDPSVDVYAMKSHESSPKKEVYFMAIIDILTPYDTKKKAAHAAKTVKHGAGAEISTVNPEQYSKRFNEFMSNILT

[3] = target: Mitogen-activated protein kinase kinase kinase 12 (Homo sapiens) (UniProt Q12852); experiment: Inhibition of DLK Lys2 labeling site harbouring in human A-375 cells at 0.05 uM by KiNativ Profiling analysis relative to control
Sequence of Mitogen-activated protein kinase kinase kinase 12 (Homo sapiens) (Q12852 whole entry, looked up): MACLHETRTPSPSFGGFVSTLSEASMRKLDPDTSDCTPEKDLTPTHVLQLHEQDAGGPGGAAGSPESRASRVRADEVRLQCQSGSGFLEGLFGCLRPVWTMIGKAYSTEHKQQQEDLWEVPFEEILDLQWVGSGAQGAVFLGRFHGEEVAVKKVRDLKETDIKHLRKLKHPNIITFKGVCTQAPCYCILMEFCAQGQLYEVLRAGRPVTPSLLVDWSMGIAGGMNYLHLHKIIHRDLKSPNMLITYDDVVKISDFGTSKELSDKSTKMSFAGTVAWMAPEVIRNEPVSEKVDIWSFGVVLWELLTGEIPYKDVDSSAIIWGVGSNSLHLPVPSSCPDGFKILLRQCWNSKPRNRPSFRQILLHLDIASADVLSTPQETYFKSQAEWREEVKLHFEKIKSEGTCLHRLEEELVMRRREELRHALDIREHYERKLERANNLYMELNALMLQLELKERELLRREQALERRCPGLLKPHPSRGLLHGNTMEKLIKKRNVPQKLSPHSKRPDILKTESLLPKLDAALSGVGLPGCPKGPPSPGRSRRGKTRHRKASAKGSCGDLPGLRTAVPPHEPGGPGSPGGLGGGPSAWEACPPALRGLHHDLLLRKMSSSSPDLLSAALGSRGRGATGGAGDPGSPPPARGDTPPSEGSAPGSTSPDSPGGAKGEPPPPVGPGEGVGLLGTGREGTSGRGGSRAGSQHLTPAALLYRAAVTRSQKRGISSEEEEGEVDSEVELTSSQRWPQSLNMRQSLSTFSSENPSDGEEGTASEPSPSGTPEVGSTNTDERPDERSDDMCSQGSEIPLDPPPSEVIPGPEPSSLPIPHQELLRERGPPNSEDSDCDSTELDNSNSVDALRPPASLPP

[4] = target: Glycogen synthase kinase-3 alpha (Homo sapiens) (UniProt P49840); experiment: Inhibition of GSK3A (unknown origin) at 1 uM by Ambit Kinomescan binding assay relative to control; values are per cent of control
[5] = target: T2, Dual specificity mitogen-activated protein kinase kinase 6 (Homo sapiens) (UniProt P52564); experiment: Inhibition of MEK6 (unknown origin) at 1 uM by Ambit Kinomescan binding assay relative to control; values are per cent of control
T2 sequence (whole entry): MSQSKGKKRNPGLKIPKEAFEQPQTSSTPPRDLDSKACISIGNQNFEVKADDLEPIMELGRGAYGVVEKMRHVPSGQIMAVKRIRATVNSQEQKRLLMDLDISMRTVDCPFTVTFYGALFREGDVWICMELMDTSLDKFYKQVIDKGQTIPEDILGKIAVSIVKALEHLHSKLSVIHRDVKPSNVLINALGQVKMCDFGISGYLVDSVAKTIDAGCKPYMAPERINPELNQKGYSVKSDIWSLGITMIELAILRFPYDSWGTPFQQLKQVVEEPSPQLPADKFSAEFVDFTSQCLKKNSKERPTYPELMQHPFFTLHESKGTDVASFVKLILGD

[6] = target: T3, Mixed lineage kinase domain-like protein (Homo sapiens) (UniProt Q8NB16); experiment: Inhibition of MLKL Lys1 labeling site in human A-375 cells at 5 uM by KiNativ Profiling analysis relative to control; assay type: cell-based
T3 sequence (whole entry): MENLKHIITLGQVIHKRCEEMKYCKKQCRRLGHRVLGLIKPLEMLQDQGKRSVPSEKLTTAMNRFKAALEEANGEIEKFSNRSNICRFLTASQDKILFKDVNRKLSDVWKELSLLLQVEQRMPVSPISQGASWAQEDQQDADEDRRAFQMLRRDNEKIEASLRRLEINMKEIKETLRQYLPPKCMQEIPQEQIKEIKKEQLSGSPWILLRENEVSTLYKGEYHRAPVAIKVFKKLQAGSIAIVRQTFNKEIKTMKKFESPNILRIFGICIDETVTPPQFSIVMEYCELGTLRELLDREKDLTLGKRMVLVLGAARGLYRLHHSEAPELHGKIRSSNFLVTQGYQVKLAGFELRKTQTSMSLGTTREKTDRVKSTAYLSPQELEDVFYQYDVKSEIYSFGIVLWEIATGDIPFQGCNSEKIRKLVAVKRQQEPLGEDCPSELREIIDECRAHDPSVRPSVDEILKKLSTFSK

[7] = target: Ephrin type-A receptor 1 (Homo sapiens) (UniProt P21709); experiment: Inhibition of EPHA1 (unknown origin) at 1 uM by Ambit Kinomescan binding assay relative to control; values are per cent of control
Sequence of Ephrin type-A receptor 1 (Homo sapiens) (P21709 whole entry): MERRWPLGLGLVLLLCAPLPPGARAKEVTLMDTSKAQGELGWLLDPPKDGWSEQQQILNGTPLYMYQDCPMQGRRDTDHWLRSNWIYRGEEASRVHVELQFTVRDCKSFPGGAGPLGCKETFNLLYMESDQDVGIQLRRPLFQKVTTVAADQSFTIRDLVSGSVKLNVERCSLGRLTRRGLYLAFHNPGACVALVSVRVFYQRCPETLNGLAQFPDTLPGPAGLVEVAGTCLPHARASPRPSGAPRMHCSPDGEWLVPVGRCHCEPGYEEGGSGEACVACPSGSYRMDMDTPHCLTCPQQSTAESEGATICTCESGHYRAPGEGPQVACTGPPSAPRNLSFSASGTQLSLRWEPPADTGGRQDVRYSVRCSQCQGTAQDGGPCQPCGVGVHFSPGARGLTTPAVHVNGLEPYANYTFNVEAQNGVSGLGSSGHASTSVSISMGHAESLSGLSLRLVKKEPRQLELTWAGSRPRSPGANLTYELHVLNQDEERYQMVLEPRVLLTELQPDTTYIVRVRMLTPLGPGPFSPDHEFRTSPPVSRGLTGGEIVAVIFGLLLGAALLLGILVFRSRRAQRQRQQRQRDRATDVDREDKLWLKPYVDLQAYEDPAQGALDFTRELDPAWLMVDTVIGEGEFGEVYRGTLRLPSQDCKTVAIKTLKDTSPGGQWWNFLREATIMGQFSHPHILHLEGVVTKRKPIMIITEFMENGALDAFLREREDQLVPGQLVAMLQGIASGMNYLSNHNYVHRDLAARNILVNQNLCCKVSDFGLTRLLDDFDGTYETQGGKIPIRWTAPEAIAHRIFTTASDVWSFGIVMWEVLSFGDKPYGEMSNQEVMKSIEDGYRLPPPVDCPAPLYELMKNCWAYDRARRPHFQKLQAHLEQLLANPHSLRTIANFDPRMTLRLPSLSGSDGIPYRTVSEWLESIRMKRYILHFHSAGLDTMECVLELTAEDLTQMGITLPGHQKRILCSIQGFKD

[8] = target: Ephrin type-B receptor 1 (Homo sapiens) (UniProt P54762); experiment: Inhibition of EPHB1 (unknown origin) at 1 uM by Ambit Kinomescan binding assay relative to control; values are per cent of control
Sequence of Ephrin type-B receptor 1 (Homo sapiens) (P54762 whole entry): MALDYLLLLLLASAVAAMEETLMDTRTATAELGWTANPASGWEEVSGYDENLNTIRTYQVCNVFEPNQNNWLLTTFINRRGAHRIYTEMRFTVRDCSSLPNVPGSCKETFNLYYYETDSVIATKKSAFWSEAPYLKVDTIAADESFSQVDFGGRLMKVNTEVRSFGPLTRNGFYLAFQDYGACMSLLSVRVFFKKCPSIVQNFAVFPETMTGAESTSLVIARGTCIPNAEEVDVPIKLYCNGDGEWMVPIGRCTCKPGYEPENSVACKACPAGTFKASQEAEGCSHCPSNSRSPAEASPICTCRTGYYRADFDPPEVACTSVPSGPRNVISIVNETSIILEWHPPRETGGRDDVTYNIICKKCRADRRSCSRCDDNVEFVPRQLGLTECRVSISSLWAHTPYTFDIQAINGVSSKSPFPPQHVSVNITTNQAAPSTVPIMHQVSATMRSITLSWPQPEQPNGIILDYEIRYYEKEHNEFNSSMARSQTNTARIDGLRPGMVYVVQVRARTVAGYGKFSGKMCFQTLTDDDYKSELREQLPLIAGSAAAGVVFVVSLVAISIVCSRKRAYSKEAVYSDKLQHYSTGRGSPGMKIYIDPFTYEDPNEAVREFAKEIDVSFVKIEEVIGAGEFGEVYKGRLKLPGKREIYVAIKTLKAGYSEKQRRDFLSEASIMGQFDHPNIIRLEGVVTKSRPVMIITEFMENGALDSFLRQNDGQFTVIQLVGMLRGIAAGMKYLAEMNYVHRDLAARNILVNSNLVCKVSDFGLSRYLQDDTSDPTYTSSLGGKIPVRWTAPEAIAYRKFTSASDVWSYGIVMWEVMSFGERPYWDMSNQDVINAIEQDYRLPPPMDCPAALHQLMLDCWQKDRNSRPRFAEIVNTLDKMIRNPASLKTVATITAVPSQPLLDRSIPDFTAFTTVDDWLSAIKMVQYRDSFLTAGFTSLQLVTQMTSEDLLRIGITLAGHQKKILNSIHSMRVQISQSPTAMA

[9] = target: Cyclin-dependent kinase 16 (Homo sapiens) (UniProt Q00536); experiment: Inhibition of PFTAIRE1 Lys2 labeling site in human A-375 cells at 0.5 uM by KiNativ Profiling analysis relative to control; assay type: cell-based
Sequence of Cyclin-dependent kinase 16 (Homo sapiens) (Q00536 whole entry): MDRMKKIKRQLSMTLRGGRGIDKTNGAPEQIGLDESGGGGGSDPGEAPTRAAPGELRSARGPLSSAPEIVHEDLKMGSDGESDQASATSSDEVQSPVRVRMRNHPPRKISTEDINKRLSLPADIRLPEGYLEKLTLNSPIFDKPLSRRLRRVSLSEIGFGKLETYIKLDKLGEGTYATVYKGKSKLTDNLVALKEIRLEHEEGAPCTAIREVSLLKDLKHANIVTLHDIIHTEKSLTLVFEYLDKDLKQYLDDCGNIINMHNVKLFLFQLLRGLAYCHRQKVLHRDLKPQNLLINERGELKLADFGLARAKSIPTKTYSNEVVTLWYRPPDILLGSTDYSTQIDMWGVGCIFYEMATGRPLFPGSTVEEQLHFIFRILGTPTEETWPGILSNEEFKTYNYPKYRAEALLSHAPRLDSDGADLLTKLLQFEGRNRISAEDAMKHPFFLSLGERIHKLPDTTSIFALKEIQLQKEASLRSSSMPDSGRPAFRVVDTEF

[10] = target: Calcium/calmodulin-dependent protein kinase type II subunit alpha (Homo sapiens) (UniProt Q9UQM7); experiment: Inhibition of CAMK2A (unknown origin) at 10 uM by Ambit Kinomescan binding assay
Sequence of Calcium/calmodulin-dependent protein kinase type II subunit alpha (Homo sapiens) (Q9UQM7 whole entry, canonical isoform): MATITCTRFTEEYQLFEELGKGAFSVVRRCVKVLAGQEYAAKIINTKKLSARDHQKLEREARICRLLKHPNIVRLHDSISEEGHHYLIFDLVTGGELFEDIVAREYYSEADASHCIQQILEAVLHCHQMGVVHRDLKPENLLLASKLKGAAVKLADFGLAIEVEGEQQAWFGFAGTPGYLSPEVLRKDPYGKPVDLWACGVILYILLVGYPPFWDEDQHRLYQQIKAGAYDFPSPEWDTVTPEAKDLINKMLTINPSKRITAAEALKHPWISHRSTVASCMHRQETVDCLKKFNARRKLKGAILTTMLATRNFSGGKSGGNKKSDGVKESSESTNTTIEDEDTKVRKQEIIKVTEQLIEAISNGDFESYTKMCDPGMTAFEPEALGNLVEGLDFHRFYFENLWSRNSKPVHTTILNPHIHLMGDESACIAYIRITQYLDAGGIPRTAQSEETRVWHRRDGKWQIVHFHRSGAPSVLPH

[11] = target: T4, Phosphorylase b kinase gamma catalytic chain, liver/testis isoform (Homo sapiens) (UniProt P15735); experiment: Inhibition of PHKG2 (unknown origin) at 10 uM by Ambit Kinomescan binding assay
T4 sequence (whole entry): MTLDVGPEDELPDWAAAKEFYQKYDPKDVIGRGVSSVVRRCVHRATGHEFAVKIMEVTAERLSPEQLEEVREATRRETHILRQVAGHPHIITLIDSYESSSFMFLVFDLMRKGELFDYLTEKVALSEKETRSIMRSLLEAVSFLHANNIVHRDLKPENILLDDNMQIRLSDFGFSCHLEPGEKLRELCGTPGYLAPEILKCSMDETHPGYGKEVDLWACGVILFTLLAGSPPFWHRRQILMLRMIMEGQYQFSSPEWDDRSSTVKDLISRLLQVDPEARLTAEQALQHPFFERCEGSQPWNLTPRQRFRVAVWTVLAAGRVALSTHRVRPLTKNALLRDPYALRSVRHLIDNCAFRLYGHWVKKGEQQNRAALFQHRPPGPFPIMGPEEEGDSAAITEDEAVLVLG

[12] = target: T2, Dual specificity mitogen-activated protein kinase kinase 6 (Homo sapiens); experiment: Inhibition of MAP2K6 Lys1 labeling site in human A-375 cells at 0.05 uM by KiNativ Profiling analysis relative to control; assay type: cell-based
[13] = target: Cyclin-dependent kinase 15 (Homo sapiens) (UniProt Q96Q40); experiment: Inhibition of PFTAIRE2 (unknown origin) at 10 uM by Ambit Kinomescan binding assay relative to control
[14] = target: Discoidin domain-containing receptor 2 (Homo sapiens) (UniProt Q16832); experiment: Inhibition of DDR2 (unknown origin) at 10 uM by Ambit Kinomescan binding assay relative to control; values are per cent of control
Sequence of Discoidin domain-containing receptor 2 (Homo sapiens) (Q16832 whole entry, the tested form may be a part): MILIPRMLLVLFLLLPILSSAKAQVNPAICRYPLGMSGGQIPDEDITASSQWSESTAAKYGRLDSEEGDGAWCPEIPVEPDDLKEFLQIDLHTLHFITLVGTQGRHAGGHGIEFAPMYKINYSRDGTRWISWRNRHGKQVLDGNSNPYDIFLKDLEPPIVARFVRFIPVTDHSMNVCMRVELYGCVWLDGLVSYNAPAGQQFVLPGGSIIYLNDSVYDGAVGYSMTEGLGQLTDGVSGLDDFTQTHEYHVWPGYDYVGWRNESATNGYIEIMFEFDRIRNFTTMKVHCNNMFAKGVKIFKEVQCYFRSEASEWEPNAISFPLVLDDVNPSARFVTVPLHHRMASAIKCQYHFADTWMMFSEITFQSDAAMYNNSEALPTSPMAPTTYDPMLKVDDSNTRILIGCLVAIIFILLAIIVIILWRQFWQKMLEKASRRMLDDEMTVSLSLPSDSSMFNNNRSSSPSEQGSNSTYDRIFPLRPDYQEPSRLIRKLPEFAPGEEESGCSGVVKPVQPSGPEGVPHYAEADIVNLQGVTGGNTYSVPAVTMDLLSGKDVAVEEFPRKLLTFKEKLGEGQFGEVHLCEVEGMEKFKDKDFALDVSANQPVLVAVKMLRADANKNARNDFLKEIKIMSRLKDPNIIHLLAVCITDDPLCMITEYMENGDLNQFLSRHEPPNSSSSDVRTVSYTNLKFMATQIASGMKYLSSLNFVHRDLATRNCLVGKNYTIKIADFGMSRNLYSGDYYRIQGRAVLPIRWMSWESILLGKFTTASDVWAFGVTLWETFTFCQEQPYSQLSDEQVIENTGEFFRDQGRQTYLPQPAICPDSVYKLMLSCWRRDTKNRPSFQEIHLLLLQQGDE

## CNc1cc(Oc2cc(C(=O)Nc3cc(N4CCN(C)CC4)cc(C(F)(F)F)c3)ccc2C)ncn1
[1]
  inhibition: -0.8%

## CCN1CCN(Cc2ccc(NC(=O)c3ccc(C)c(/C=C/c4cnc5[nH]ccc5c4OC)c3)cc2C(F)(F)F)CC1
[2]
  residual activity: 12%
[3]
  inhibition: 9%
[4]
  residual activity: 100%
[5]
  residual activity: 100%
[6]
  inhibition: 3.2%
[7]
  residual activity: 16%
[8]
  residual activity: 11%

## CCN1CCN(Cc2ccc(NC(=O)c3ccc(C)c(Oc4ccnc5[nH]ccc45)c3)cc2C(F)(F)F)CC1
[9]
  inhibition: 33.6%
[10]
  inhibition: inactive
[11]
  inhibition: inactive
[12]
  inhibition: 4%
[13]
  inhibition: 6%
[14]
  percent of control: 5.1%
